Reference: patent publication US7465729B2, “Methods of treatment of menopause and perimenopause using eszopiclone” (Sepracor Inc., priority 2004, dated 2008)

How the values were obtained:
[1] = system: women with insomnia secondary to perimenopause or menopause; experiment: Clinical study: number of nocturnal awakenings due to hot flashes; format: in vivo; details: 3 mg nightly, ITT; for Number of Nocturnal Awakenings due to Hot Flashes, Change from Baseline, Least Squares Means (SE) [3]: ANCOVA; for Number of Nocturnal Awakenings due to Hot Flashes, Observed Value, Least Squares Means (SE) [2]: ANOVA
Method: The study was aimed at observing efficacy of eszopiclone 3 mg compared to placebo in the treatment of insomnia secondary to perimenopause or menopause. The study was a multicenter, randomized, double-blind, placebo-controlled, parallel-group study. […] The primary method of analysis compared the post-randomization results between the two treatment groups.
Subjects were women with insomnia secondary to perimenopause or menopause. Subjects were perimenopausal or menopausal and had insomnia symptoms including ≧45 minutes sleep latency (SL) and total sleep time (TST) ≦6 hours. Perimenopausal/menopausal symptoms predated the onset of sleep disturbance symptoms. The patient population was predominately Caucasian (77.2%). The mean age was 49, with a range of 40-60.
A total of 410 subjects were randomized. Among them, 201 received 3 mg of eszopiclone (ESZ) nightly (at bedtime) for four weeks and 209 received matching placebo (PBO).

[2] = system: muscarinic receptors; experiment: In vitro affinity for muscarinic receptors; format: binding

CN1CCN(C(=O)O[C@H]2c3nccnc3C(=O)N2c2ccc(Cl)cn2)CC1 [Eszopiclone, (+)6-(5-chloropyrid-2-yl)-5-(4-methylpiperazin-1-yl)carbonyloxy-7-oxo-6,7-dihydro-5H-pyrrolo[3-4-b]pyrazine]
Number of Nocturnal Awakenings due to Hot Flashes, Change from Baseline, Median ([1]; Week 1): −0.5 | Number of Nocturnal Awakenings due to Hot Flashes, Change from Baseline, Minimum ([1]; Week 1): −6.0 | Number of Nocturnal Awakenings due to Hot Flashes, Observed Value, 25th Percentile ([1]; Week 1): 0.0 | Number of Nocturnal Awakenings due to Hot Flashes, Observed Value, 75th Percentile ([1]; Week 1): 1.0 | Number of Nocturnal Awakenings due to Hot Flashes, Observed Value, Maximum ([1]; Week 1): 3.0 | Number of Nocturnal Awakenings due to Hot Flashes, Observed Value, Mean (SD) ([1]; Week 1): 0.5 (0.7) | Number of Nocturnal Awakenings due to Hot Flashes, Observed Value, Median ([1]; Week 1): 0.2 | Number of Nocturnal Awakenings due to Hot Flashes, Observed Value, Minimum ([1]; Week 1): 0.0 | Number of Nocturnal Awakenings due to Hot Flashes, Change from Baseline, Least Squares Means (SE) [3] ([1]; Week 1): −0.7 (0.1) | Number of Nocturnal Awakenings due to Hot Flashes, Observed Value, Least Squares Means (SE) [2] ([1]; Week 1): 0.5 (0.1) | Number of Nocturnal Awakenings due to Hot Flashes, Change from Baseline, 25th Percentile ([1]; Week 2): −1.0 | Number of Nocturnal Awakenings due to Hot Flashes, Change from Baseline, 75th Percentile ([1]; Week 2): 0.0 | Number of Nocturnal Awakenings due to Hot Flashes, Change from Baseline, Maximum ([1]; Week 2): 2.0 | Number of Nocturnal Awakenings due to Hot Flashes, Change from Baseline, Mean (SD) ([1]; Week 2): −0.7 (1.0) | Number of Nocturnal Awakenings due to Hot Flashes, Change from Baseline, Median ([1]; Week 2): −0.6 | Number of Nocturnal Awakenings due to Hot Flashes, Change from Baseline, Minimum ([1]; Week 2): −6.0 | Number of Nocturnal Awakenings due to Hot Flashes, Observed Value, 25th Percentile ([1]; Week 2): 0.0 | Number of Nocturnal Awakenings due to Hot Flashes, Observed Value, 75th Percentile ([1]; Week 2): 1.0 | Number of Nocturnal Awakenings due to Hot Flashes, Observed Value, Maximum ([1]; Week 2): 3.0 | Number of Nocturnal Awakenings due to Hot Flashes, Observed Value, Mean (SD) ([1]; Week 2): 0.5 (0.7) | Number of Nocturnal Awakenings due to Hot Flashes, Observed Value, Median ([1]; Week 2): 0.0 | Number of Nocturnal Awakenings due to Hot Flashes, Observed Value, Minimum ([1]; Week 2): 0.0 | Number of Nocturnal Awakenings due to Hot Flashes, Change from Baseline, Least Squares Means (SE) [3] ([1]; Week 2): −0.6 (0.1) | Number of Nocturnal Awakenings due to Hot Flashes, Observed Value, Least Squares Means (SE) [2] ([1]; Week 2): 0.5 (0.1) | Number of Nocturnal Awakenings due to Hot Flashes, Change from Baseline, 25th Percentile ([1]; Week 3): −1.0 | Number of Nocturnal Awakenings due to Hot Flashes, Change from Baseline, 75th Percentile ([1]; Week 3): 0.0 | Number of Nocturnal Awakenings due to Hot Flashes, Change from Baseline, Maximum ([1]; Week 3): 1.5 | Number of Nocturnal Awakenings due to Hot Flashes, Change from Baseline, Mean (SD) ([1]; Week 3): −0.7 (1.1) | Number of Nocturnal Awakenings due to Hot Flashes, Change from Baseline, Median ([1]; Week 3): −0.4 | Number of Nocturnal Awakenings due to Hot Flashes, Change from Baseline, Minimum ([1]; Week 3): −6.0 | Number of Nocturnal Awakenings due to Hot Flashes, Observed Value, 25th Percentile ([1]; Week 3): 0.0 | Number of Nocturnal Awakenings due to Hot Flashes, Observed Value, 75th Percentile ([1]; Week 3): 1.0 | Number of Nocturnal Awakenings due to Hot Flashes, Observed Value, Maximum ([1]; Week 3): 3.0 | Number of Nocturnal Awakenings due to Hot Flashes, Observed Value, Mean (SD) ([1]; Week 3): 0.5 (0.7) | Number of Nocturnal Awakenings due to Hot Flashes, Observed Value, Median ([1]; Week 3): 0.0 | Number of Nocturnal Awakenings due to Hot Flashes, Observed Value, Minimum ([1]; Week 3): 0.0 | Number of Nocturnal Awakenings due to Hot Flashes, Change from Baseline, Least Squares Means (SE) [3] ([1]; Week 3): −0.6 (0.1) | Number of Nocturnal Awakenings due to Hot Flashes, Observed Value, Least Squares Means (SE) [2] ([1]; Week 3): 0.5 (0.1) | Number of Nocturnal Awakenings due to Hot Flashes, Change from Baseline, 25th Percentile ([1]; Week 4): −1.3 | Number of Nocturnal Awakenings due to Hot Flashes, Change from Baseline, 75th Percentile ([1]; Week 4): 0.0 | Number of Nocturnal Awakenings due to Hot Flashes, Change from Baseline, Maximum ([1]; Week 4): 2.1 | Number of Nocturnal Awakenings due to Hot Flashes, Change from Baseline, Mean (SD) ([1]; Week 4): −0.8 (1.2) | Number of Nocturnal Awakenings due to Hot Flashes, Change from Baseline, Median ([1]; Week 4): −0.7 | Number of Nocturnal Awakenings due to Hot Flashes, Change from Baseline, Minimum ([1]; Week 4): −6.0 | Number of Nocturnal Awakenings due to Hot Flashes, Observed Value, 25th Percentile ([1]; Week 4): 0.0 | Number of Nocturnal Awakenings due to Hot Flashes, Observed Value, 75th Percentile ([1]; Week 4): 1.0 | Number of Nocturnal Awakenings due to Hot Flashes, Observed Value, Maximum ([1]; Week 4): 3.6 | Number of Nocturnal Awakenings due to Hot Flashes, Observed Value, Mean (SD) ([1]; Week 4): 0.4 (0.7) | Number of Nocturnal Awakenings due to Hot Flashes, Observed Value, Median ([1]; Week 4): 0.0 | Number of Nocturnal Awakenings due to Hot Flashes, Observed Value, Minimum ([1]; Week 4): 0.0 | Number of Nocturnal Awakenings due to Hot Flashes, Change from Baseline, Least Squares Means (SE) [3] ([1]; Week 4): −0.7 (0.1) | Number of Nocturnal Awakenings due to Hot Flashes, Observed Value, Least Squares Means (SE) [2] ([1]; Week 4): 0.4 (0.1) | in vitro affinity for muscarinic receptors [2]: lack of in vitro affinity
